Experimental data taken from ChEMBL document CHEMBL1201862, “PubChem BioAssay data set” (2004).
Activity calls are given as the source filed them. For most assays here, no stated cut-off is given here; in the data, actives have a measured EC50 and inactives only a lower limit.

Tests used:
[1] = target: T1, Heat shock factor protein 1 (Mus musculus, UniProt P38532); experiment: enhancement of HSF1-driven luciferase signal – cell-based, NIH3T3, luminescence, dose retest, confirmation (AID 435004); type: functional;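 further: stress induced by proteasome inhibitor MG132 added 30 min after compound; luciferase reporter driven by HSF1 response element in NIH3T3 cells; actives raise luminescence as potentiators of the MG132 stress response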
T1 sequence (P38532 whole entry): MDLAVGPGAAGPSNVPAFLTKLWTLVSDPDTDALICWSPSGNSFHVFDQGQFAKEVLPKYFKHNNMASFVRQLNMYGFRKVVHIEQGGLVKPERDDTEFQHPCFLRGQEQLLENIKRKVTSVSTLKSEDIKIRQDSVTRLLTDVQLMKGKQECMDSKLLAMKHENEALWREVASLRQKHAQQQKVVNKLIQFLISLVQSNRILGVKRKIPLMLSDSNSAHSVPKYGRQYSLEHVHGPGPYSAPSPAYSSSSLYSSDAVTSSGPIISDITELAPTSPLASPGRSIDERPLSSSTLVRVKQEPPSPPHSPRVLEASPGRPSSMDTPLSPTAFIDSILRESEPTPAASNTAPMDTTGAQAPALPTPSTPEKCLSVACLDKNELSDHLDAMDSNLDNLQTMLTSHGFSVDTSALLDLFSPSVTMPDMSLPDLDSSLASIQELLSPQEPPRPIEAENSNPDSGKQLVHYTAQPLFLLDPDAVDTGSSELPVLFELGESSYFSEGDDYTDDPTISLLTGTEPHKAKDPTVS

[2] = Luminescence Cell-Based Dose Confirmation HTS to Identify Inhibitors of Platelet Dense Granule Release. [Related pubchem assays: 1663 (Primary HTS), 1678 (Summary of Project)]; type: functional
[3] = target: Luciferin 4-monooxygenase (Photinus pyralis, UniProt P08659); experiment: inhibition of purified Photinus pyralis luciferase – biochemical, luminescence, dose response (AID 1891)
[4] = system: INS1; experiment: INS-1E survival protection against cytokine death – cell-based, luminescence, retest, dose response (AID 449756); type: functional; settings: Rattus norvegicus;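 further: cell death triggered by IL-1 beta plus TNF-alpha plus IFN-gamma mixture; protective hits raise ATP signal compared with cytokine alone wells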
[5] = Luminescence Cell-Based Dose Retest to Confirm Inhibitors of Cancer Stem Cells. [Related pubchem assays (depositor defined):AID2717, AID2721]; type: functional; settings: Homo sapiens
[6] = luciferase reporter signal suppression in cells – H4 neuroglioma cells, luminescence, dose response (AID 1990); type: functional, cell-based
[7] = Luminescence Cell-Based Dose Response HTS to Identify Inhibitors of 5'UTR Stem-Loop Driven Prion Protein mRNA Translation in H4 Neuroglioblastoma Cells. [Related pubchem assays: 1827 (Project Summary), 1813 (Primary HTS)]; type: functional
[8] = alpha-synuclein stem-loop luciferase translation blockers – H4 neuroglioma cells, luminescence, confirmation (AID 1988); type: functional, cell-based
[9] = target: T2, Cytochrome P450 1A2 (Homo sapiens, UniProt P05177);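 further: PubChem cytochrome P450 panel assay, CYP1A2 panel member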
T2 sequence (P05177 whole entry): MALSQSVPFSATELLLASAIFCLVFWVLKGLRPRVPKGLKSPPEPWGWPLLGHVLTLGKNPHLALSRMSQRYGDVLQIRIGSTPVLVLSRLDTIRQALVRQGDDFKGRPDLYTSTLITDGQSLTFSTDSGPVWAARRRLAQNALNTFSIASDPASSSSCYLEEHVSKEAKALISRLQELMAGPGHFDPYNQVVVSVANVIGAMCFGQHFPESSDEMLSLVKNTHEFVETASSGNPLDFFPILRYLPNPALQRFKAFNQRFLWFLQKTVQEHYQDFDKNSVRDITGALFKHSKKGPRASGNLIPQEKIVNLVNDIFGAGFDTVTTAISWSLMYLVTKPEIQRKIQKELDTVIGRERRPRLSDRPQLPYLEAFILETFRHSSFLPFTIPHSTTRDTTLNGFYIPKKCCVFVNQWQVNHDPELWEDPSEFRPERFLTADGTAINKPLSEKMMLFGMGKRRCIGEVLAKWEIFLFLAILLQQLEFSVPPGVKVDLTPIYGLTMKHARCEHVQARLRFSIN

[10] = target: T3, Streptokinase A (Streptococcus pyogenes serotype M1, UniProt P10520); experiment: viability-normalized secreted streptokinase activity reduction – plasminogen activation absorbance, OD405, dose response (AID 1914); type: functional, Streptococcus pyogenes M1 GAS;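 further: secreted streptokinase activity via plasminogen activation per viability signal from cell pellet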
T3 sequence (P10520 whole entry): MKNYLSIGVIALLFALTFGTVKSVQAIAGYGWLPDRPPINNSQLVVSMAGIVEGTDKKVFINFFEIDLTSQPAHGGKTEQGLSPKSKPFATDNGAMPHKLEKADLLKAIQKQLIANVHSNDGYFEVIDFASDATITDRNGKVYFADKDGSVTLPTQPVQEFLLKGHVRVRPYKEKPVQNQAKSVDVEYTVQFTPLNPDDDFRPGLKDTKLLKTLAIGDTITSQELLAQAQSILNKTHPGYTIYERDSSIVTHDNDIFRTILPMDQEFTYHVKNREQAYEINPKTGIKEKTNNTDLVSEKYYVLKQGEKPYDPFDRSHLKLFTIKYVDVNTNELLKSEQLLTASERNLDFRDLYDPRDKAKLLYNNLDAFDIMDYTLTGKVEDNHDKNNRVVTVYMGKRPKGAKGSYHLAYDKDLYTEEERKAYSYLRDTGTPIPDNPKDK

[11] = system: Streptococcus sp. 'group A'; experiment: Streptococcus pyogenes SK(-)GAS viability under kanamycin – luminescence, BacTiterGlo, confirmation, counter-screen for streptokinase expression inhibitor project, dose response (AID 1900); type: functional, organism-based
[12] = system: Streptococcus; experiment: GAS UMAA2166 growth inhibition – luminescence, BacTiterGlo, counter-screen for streptokinase expression inhibitor project, dose response (AID 1915); type: functional, organism-based;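 further: potency for reduction of bacterial viability or growth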
[13] = system: H9c2; experiment: cells; type: functional, cell-based; settings: Rattus norvegicus, H9c2, Myocardium;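 further: confirmatory concentration-response retest of ultra-high-throughput screening hits for modulation of myocardial damage; cell death induced by hydrogen peroxide oxidative stress; compound pretreatment for 60 min then peroxide exposure for 2 h; potency is for protecting the cells against peroxide damage rather than for killing them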
[14] = target: T1, Heat shock factor protein 1; experiment: decrease of HSF1-responsive luciferase luminescence – cell-based, NIH3T3, dose retest, confirmation (AID 2382); type: functional;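 further: NIH3T3 fibroblasts with HSF1-driven luciferase reporter stressed by proteasome inhibitor MG132; luminescence from HSF1-driven luciferase expression after 8 hours of MG132 stress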
[15] = NIH3T3 cell viability loss – ATP luminescence, mouse fibroblasts, counter-screen, dose response (AID 2010); type: functional, cell-based;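 further: cells exposed to compound for about 90 hours before reading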
[16] = Trypanosoma cruzi growth suppression in host cells – NIH3T3 host cells, beta-gal luminescence, confirmation (AID 2044); type: functional, cell-based;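 further: intracellular parasites grown in NIH/3T3 mouse fibroblasts as host cells; luminescent beta-galactosidase reporter signal from transgenic T. cruzi replicating inside host cells; inhibitors lower the luminescence signal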
[17] = target: Cytochrome P450 2D6 (Homo sapiens, UniProt P10635);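 further: CYP2D6 member of a cytochrome P450 panel assay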
[18] = target: Cytochrome P450 3A4 (Homo sapiens, UniProt P08684);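 further: CYP3A4 tested as one member of a cytochrome P450 panel screen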
Sequence of Cytochrome P450 3A4 (P08684 whole entry): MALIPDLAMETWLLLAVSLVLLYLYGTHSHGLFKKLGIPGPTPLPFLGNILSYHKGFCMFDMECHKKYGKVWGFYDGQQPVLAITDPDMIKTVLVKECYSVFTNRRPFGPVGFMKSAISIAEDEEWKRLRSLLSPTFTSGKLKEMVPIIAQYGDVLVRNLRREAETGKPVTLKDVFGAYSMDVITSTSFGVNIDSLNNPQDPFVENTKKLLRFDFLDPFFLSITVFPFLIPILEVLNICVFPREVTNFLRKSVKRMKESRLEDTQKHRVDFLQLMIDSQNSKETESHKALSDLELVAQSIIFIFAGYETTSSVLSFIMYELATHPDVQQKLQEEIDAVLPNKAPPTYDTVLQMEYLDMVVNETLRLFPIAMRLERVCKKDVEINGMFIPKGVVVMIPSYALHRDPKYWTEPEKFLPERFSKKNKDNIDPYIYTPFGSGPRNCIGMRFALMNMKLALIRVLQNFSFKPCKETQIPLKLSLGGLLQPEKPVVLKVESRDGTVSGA

Sequence of Luciferin 4-monooxygenase (P08659 whole entry): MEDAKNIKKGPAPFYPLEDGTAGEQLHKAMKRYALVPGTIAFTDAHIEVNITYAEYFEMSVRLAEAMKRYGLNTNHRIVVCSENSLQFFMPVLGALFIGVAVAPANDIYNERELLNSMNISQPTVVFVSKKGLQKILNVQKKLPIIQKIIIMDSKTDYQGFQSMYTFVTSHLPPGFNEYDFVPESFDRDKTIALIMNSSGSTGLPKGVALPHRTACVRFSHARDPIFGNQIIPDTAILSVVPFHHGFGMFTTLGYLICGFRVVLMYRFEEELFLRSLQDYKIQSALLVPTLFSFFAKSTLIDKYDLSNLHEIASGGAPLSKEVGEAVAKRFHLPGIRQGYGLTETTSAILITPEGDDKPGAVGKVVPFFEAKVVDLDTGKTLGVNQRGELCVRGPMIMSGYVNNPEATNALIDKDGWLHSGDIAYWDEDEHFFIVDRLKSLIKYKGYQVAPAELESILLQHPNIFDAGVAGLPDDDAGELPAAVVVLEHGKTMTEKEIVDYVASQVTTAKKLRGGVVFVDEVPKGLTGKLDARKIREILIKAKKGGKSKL
Sequence of Cytochrome P450 2D6 (P10635 whole entry): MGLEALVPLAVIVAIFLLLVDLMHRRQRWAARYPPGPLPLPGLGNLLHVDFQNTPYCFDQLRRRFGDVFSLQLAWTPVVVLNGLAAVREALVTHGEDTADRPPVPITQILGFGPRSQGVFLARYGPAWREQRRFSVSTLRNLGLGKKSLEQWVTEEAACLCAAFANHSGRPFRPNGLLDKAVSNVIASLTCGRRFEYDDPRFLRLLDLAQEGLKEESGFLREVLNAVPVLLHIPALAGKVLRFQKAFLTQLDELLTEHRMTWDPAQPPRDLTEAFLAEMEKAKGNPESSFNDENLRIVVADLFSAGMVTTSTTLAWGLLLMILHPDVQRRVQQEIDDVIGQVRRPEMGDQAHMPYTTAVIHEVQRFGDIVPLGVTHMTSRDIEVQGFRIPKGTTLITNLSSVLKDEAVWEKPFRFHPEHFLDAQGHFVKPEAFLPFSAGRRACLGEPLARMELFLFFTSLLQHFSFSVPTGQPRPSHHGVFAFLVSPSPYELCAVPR

## COC(=O)/C(=C\Nc1ccccc1N)c1ncc(C(F)(F)F)cc1Cl
[1]
  EC50: > 260 µM (inactive)

## COc1ccc(/N=C/C2=C(O)c3ccccc3C2=O)cc1
[2]
  EC50: 3.93 µM (active)
[3]
  EC50: 0.576 µM (active)

## COC1=C(Nc2ccccc2OC)C(=O)c2ccccc2C1=O
[4]
  AC50: 38.3 µM (active)

## COc1nc(N2CCCCCC2)nc(N2CCCCCC2)n1
[5]
  AC50: 6.21 µM (active)

## O=C(NCc1cccs1)c1csc2ccccc12
[2]
  EC50: > 112 µM (not active)
[3]
  EC50: > 112 µM (not active)

## COc1ccc(/C=N/NC(=O)C2C3CCCCC32)cc1OC (centres undefined)
[6]
  EC50: > 120 µM (not active)
[7]
  EC50: > 120 µM (not active)
[8]
  EC50: 67.5 µM (active)

## CCOC(=O)C1=C(C)N=c2s/c(=C\C(=O)OC)c(=O)n2C1c1ccc(OC)cc1 (centres undefined)
[1]
  EC50: 10.1 µM (active)

## O=[N+]([O-])CC(c1ccccc1)c1c(O)n[nH]c1-c1ccccc1O (centres undefined)
[1]
  EC50: 131 µM (active)

## COc1ccccc1-c1c(C(F)(F)F)oc2cc(OCC(=O)Nc3cc(C)ccc3C)ccc2c1=O
[6]
  EC50: > 120 µM (not active)
[7]
  EC50: > 120 µM (not active)
[8]
  EC50: > 120 µM (not active)

## COc1ccc(C(=O)N2CCCC(c3nc(-c4ccc(OC)c(OC)c4)no3)C2)c(OC)c1 (centres undefined)
[2]
  EC50: > 112 µM (not active)
[3]
  EC50: > 112 µM (not active)

## COC(=O)c1sccc1NC(=O)Nc1cccc(OC)c1
[2]
  EC50: 4.37 µM (active)
[3]
  EC50: 1.31 µM (active)

## COC(=O)c1ccc(CSc2nnc(N)s2)cc1
[2]
  EC50: > 112 µM (not active)
[3]
  EC50: > 112 µM (not active)

## Cc1nc(O)nc(O)c1/C=C/C(=O)OCC(C)C
[6]
  EC50: 22.7 µM (active)
[7]
  EC50: > 120 µM (not active)
[8]
  EC50: 15.5 µM (active)

## CCN(CC(=O)Nc1ccc(NC(C)=O)cc1)Cc1c(O)ccc2cc(Br)ccc12
[1]
  EC50: 8.46 µM (active)

## Cc1cc(OCc2cc(C(=O)N3CCC(Oc4cccnc4)CC3)no2)cc(C)c1Cl
[5]
  AC50: 7.55 µM (active)

## Cc1ccc(-n2c(SCC(=O)Nc3cc(S(=O)(=O)N4CCOCC4)ccc3Cl)nc3ccccc3c2=O)cc1
[1]
  EC50: > 260 µM (inactive)

## O=C1CC(c2cccc(Cl)c2)c2cc3c(cc2N1)CCC3 (centres undefined)
[6]
  EC50: > 120 µM (not active)
[7]
  EC50: 11.9 µM (active)
[8]
  EC50: 6.74 µM (active)

## CC1CCN(Cc2c(C(=O)N/N=C/c3ccc(C(C)(C)C)cc3)nnn2-c2nonc2N)CC1
[6]
  EC50: 9.56 µM (active)
[7]
  EC50: 14.1 µM (active)
[8]
  EC50: > 120 µM (not active)

## CN(C)c1nc(NC(C)(C)C)nc(SCC(=O)Nc2ccccc2)n1
[1]
  EC50: > 260 µM (inactive)

## Cn1nnc2c[n+](CC(=O)c3ccc4ccccc4c3)cc(Br)c21
[1]
  EC50: 12.2 µM (active)

## COCCN1CN=C(Nc2nc3ccccc3o2)NC1
[2]
  EC50: > 112 µM (not active)
[9]
  AC50: 22.4 µM (inconclusive)
[3]
  EC50: > 112 µM (not active)

## O=C(Nc1cccc(-c2csc(Nc3cccc(C(F)(F)F)c3)n2)c1)c1ccccc1
[10]
  EC50: > 150 µM (not active)
[5]
  AC50: 1.6 µM (active)
[11]
  EC50: 4.47 µM (active)
[12]
  EC50: 6.3 µM (active)

## CC(C)(C)c1ccc(Oc2ccc(NC(=O)c3cccs3)cn2)cc1
[5]
  AC50: 3.9 µM (active)

## CCc1cc(CNC(=O)c2ccc3nc(Cc4ccc(OC)c(OC)c4)oc3c2)on1
[4]
  AC50: 3.62 µM (active)

## Cc1cc(-c2csc3ncnc(S)c23)cc(C)c1C
[5]
  AC50: 12.8 µM (active)
[11]
  EC50: 1.31 µM (active)
[12]
  EC50: 4.06 µM (active)

## COc1ccc2oc(=O)c(C(=O)N3CCCC3)cc2c1
[2]
  EC50: > 112 µM (not active)
[3]
  EC50: > 112 µM (not active)

## O=C1c2cccnc2Oc2ccc(Cl)cc2N1Cc1ccc(F)cc1
[13]
  IC50: > 79 µM (inactive)
[14]
  EC50: > 195 µM (not active)

## CC/C(C)=N\N=C\c1c(O)n(CC)c2cc(C3=NNC(=O)CC3)ccc12
[13]
  IC50: 11.9 µM (active)
[2]
  EC50: 6.14 µM (active)
[3]
  EC50: > 112 µM (not active)

## COc1ccc(OCC(=O)Nc2nc3ccccc3[nH]2)cc1
[2]
  EC50: > 112 µM (not active)
[3]
  EC50: > 112 µM (not active)

## CCCCNc1c(-c2ccc(SC3CCCCC3)cc2)nc2ccccn12
[15]
  EC50: > 30 µM (not active)
[10]
  EC50: > 150 µM (not active)
[4]
  AC50: 5.33 µM (active)
[11]
  EC50: 8.18 µM (active)
[12]
  EC50: 8.23 µM (active)
[16]
  EC50: 1.2 µM (active)

## CC(=O)NCCC(=O)Nc1nc(-c2cccs2)c(-c2cccs2)s1
[1]
  EC50: > 260 µM (inactive)

## CCOc1ccc(C2C3=C(O)CCCC3=Nc3ccc4ncccc4c32)cc1 (centres undefined)
[1]
  EC50: 14.1 µM (active)

## Cc1ccc(-n2nc3c(N4CCC(C(=O)NCCc5ccccc5C)CC4)nnc(C)c3c2C)cc1
[15]
  EC50: 6.26 µM (active)
[6]
  EC50: 9.7 µM (active)
[7]
  EC50: 39.8 µM (active)
[8]
  EC50: > 120 µM (not active)
[16]
  EC50: 0.941 µM (active)

## Cc1onc(-c2ccccc2)c1C(=O)N/N=C/c1cccc(O)c1
[1]
  EC50: > 260 µM (inactive)

## COC(=O)N1C(=O)[C@@](c2ccccc2)(C2CCCC2)N1C(=O)OC
[1]
  EC50: 14.9 µM (active)

## CCCCN=C(S)N(Cc1ccco1)Cc1cc2cc3c(cc2nc1O)OCCO3
[1]
  EC50: > 260 µM (inactive)

## CCOC(=O)c1nn(-c2ccc3c(c2)CCN3C(C)=O)cc1O
[2]
  EC50: > 112 µM (not active)
[3]
  EC50: > 112 µM (not active)

## Cc1ccc(NC(=O)c2cc3c(=O)oc4ccccc4c3s2)nc1
[1]
  EC50: > 260 µM (inactive)

## Oc1cccc(-c2nc3c4c(ncn3n2)-c2ccccc2CC42CCCC2)c1
[5]
  AC50: 1.16 µM (active)
[17]
  AC50: 0.631 µM (inconclusive)
[18]
  AC50: 22.4 µM (inconclusive)

## O=C1c2c(Br)c(Br)c(Br)c(Br)c2C(=O)N1c1ccccn1
[5]
  AC50: 1.95 µM (active)
